Assays:
Saccharomyces cerevisiae [1] = assay: DNA damaging activity in yeast RS 322YK mutant assessed as drug level required to produce 12 mm zone of inhibition; assay type: functional
Saccharomyces cerevisiae [2] = assay: DNA damaging activity in yeast RS 188N mutant assessed as drug level required to produce 12 mm zone of inhibition; assay type: functional

| SMILES | IC12 (Saccharomyces cerevisiae [1]) | IC12 (Saccharomyces cerevisiae [2]) |
| --- | --- | --- |
| C=C[C@H]1[C@H](O[C@@H]2O[C@H](CO)[C@@H](O)[C@H](O)[C@H]2O)OC=C(C(=O)OC)[C@H]1C[C@@H]1N[C@@H](C(=O)O)Cc2c1[nH]c1ccccc21 | 100 µg/mL | > 250 µg/mL |
| C/C=C(\C=O)[C@@H]1C[C@H]2c3[nH]c4ccccc4c3CCN2C=C1C(=O)OC [ISOVALLESIACHOTAMINE] | 100 µg/mL | > 250 µg/mL |
| C=C[C@H]1[C@H](O[C@@H]2O[C@H](CO)[C@@H](O)[C@H](O)[C@H]2O)OC=C(C(=O)OC)[C@H]1C[C@@H]1NCCc2c1[nH]c1ccccc21 [STRICTOSIDINE] | 100 µg/mL | > 250 µg/mL |
| C=C[C@H]1[C@@H](/C(=C/O)C(=O)OC)C[C@H]2c3[nH]c4ccccc4c3CCN2[C@H]1O[C@H]1O[C@@H](CO)[C@H](O)[C@@H](O)[C@@H]1O [TURBINATINE] | 100 µg/mL | > 250 µg/mL |
| C/C=C(/C=O)[C@@H]1C[C@H]2c3[nH]c4ccccc4c3CCN2C=C1C(=O)OC [VALLESIACHOTAMINE] | 100 µg/mL | > 250 µg/mL |
